Where two headings read alike, the source gives them in different places.

The target in test [1] is T1, human CB2 receptor (Homo sapiens (Human), UniProt P34972). In words: CB2 receptor cAMP assay (DiscoverX HitHunter cAMP XS+). It is filed as cell-based. To be noted: for Emax: CHO-K1, read-out: Max Stimulation %. As for the experimental part: cAMP Hunter CHO-K-1 cell lines expressing human CB2 receptor (Eurofins) were expanded from freezer stocks according to standard procedures. Cells were seeded in a total volume of 20 μL into white walled, 384-well microplates and incubated at 37° C. for the appropriate time prior to testing. cAMP modulation in agonist, inverse agonist or antagonist format was determined using the DiscoverX HitHunter cAMP XS+ assay (Eurofins). For agonist determination, cells were incubated with sample in the presence of EC80 forskolin to induce response. Media was aspirated from cells and replaced with 15 μL 2:1 HBSS/10 mM Hepes: cAMP XS+Ab reagent. Intermediate dilution of sample stocks was performed to generate 4× sample in assay buffer containing 4× EC80 forskolin. 5 μL of 4× sample was added to cells and incubated at 37° C. or room temperature for 30 or 60 minutes. Final assay vehicle concentration was 1%. For inverse agonist determination, cells were preincubated with sample in the presence of EC20 forskolin. Media was aspirated from cells and replaced with 15 μL, 2:1 HBSS/10 mM Hepes: cAMP XS+Ab reagent. Intermediate dilution of sample stocks was performed to generate 4× sample in assay buffer containing 4× EC20 forskolin. 5 μL of 4× sample was added to cells and incubated at 37° C. or room temperature for 30 or 60 minutes. Final assay vehicle concentration was 1%. For antagonist determination, cells were pre-incubated with sample followed by agonist challenge at the EC80 concentration. Media was aspirated from cells and replaced with 10 μL 1:1 HBSS/Hepes: cAMP XS+Ab reagent. 5 μL of 4× compound was added to the cells and incubated at 37° C. or room temperature for 30 minutes. 5 μL of 4× EC80 agonist was added to cells and incubated at 37° C. or room temperature for 30 or 60 minutes. EC80 forksolin was included. After appropriate compound incubation, assay signal was generated through incubation with 20 μL cAMP XS+ED/CL lysis cocktail for one hour followed by incubation with 20 μL, cAMP XS+EA reagent for three hours at room temperature. Microplates were read following signal generation with a PerkinElmer Envision instrument for chemiluminescent signal detection. Compound activity was analyzed using CBIS data analysis suite (ChemInnovation, CA). For agonist mode assay, percentage activity is calculated using the following formula: % Activity=100%×(1−(mean RLU of test sample−mean RLU of MAX control)/(mean RLU of vehicle control−mean RLU of MAX control)). For inverse agonist mode assay, percentage activity is calculated using the following formula: % Inverse Agonist Activity=100%×((mean RLU of test sample−mean RLU of EC20 forskolin)/(mean RLU of forskolin positive control−mean RLU of EC20 control)). For antagonist mode assay, percentage inhibition is calculated using the following formula: % Inhibition=100%×(mean RLU of test sample−mean RLU of EC80 control)/(mean RLU of forskolin positive control−mean RLU of EC80 control). Data are analyzed and IC50 is calculated using GraphPad Prism 5 and the model “log(inhibitor) vs. response—Variable slope”.
T1 sequence (P34972 whole entry): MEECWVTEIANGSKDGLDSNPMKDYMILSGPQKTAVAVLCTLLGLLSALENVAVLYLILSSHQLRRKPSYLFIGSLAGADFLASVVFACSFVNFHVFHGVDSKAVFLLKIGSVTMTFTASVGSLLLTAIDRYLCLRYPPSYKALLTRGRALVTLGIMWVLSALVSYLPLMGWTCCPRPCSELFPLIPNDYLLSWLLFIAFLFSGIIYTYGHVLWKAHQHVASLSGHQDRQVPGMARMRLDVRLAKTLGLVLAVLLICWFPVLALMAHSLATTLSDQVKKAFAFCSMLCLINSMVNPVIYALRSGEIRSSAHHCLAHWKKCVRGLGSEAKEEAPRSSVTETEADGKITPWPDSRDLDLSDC
For orientation: cAMP levels reflect the balance of adenylyl cyclase and phosphodiesterase activity.

Test [2] concerns the target T1, human CB2 receptor. In words: CB2 receptor binding assay ([3H]CP-55,940 displacement, HEK-293 membranes).
Test [3] addresses human recombinant CB1R (Homo sapiens (Human), UniProt P21554). The test is described as follows: CB1 receptor binding assay ([3H]CP-55,940 displacement, HEK-293 membranes). The settings on record: membranes of HEK-293 cells with human recombinant CB1R, [3H]CP-55,940, read-out: CB1 IC50. An outline of the steps: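 Membranes from HEK-293 cells expressing human recombinant CB1R or CB2R were incubated with [3H]CP-55,940 and compound for 120 min at 37 °C in duplicate. The CB2R incubation buffer was 50 mM Tris-HCl, 5 mM MgCl2, 1 mM CaCl2, 0.2% BSA, pH 7.4. Bound radioactivity was filtered and counted, and IC50 was converted to Ki by Cheng–Prusoff.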

[4] abbreviates: membranes of HEK-293 cells with human recombinant CB2R, [3H]CP-55,940, read-out: CB2 IC50.
Where [5] appears, read: cAMP Hunter CHO-K-1 cells expressing human CB2 receptor, read-out: cAMP IC50.
Where [6] appears, read: membranes of HEK-293 cells with human recombinant CB2R, [3H]CP-55,940, class symbols, read-out: CB2 IC50.

Sequence of human recombinant CB1R (P21554 whole entry): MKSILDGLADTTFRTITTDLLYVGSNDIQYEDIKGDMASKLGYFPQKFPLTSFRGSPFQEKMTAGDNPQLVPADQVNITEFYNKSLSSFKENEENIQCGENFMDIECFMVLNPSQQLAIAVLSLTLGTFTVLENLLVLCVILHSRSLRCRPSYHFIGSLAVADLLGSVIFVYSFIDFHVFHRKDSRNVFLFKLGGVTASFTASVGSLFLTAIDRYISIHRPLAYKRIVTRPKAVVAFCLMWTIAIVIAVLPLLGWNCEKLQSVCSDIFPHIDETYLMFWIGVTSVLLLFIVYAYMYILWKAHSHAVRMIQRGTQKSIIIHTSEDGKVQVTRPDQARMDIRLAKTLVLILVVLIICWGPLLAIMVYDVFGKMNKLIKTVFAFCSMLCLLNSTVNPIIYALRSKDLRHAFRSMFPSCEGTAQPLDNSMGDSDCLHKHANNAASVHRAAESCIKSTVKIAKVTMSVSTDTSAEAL

As a reminder, the IC50 is the point on the concentration scale where inhibition reaches its midpoint. `CC1CCC(NC(=O)c2c(O)c3cc(-c4ccc(F)cc4)cnc3n(CCN3CCOCC3)c2=O)CC1` (centres unmarked) [Compound 5, 6-(4-fluorophenyl)-4-hydroxy-N-(4-methylcyclohexyl)-1-(2-morpholinoethyl)-2-oxo-1,2-dihydro-1,8-naphthyridine-3-carboxamide]: the IC50 in test [1] is 70 nM; in test [2] (setting [4]), 6.5 nM; in test [3], 3870 nM. Besides, the Emax in test [1] turned out to be 75%.
Regarding `O=C(NC1CC2(CCC2)C1)c1c(O)c2cc(-c3ccc(F)cc3)cnc2n(CCN2CCOCC2)c1=O` [Compound 6, 6-(4-fluorophenyl)-4-hydroxy-1-(2-morpholinoethyl)-2-oxo-N-(spiro[3.3]heptan-2-yl)-1,2-dihydro-1,8-naphthyridine-3-carboxamide], the values for the 50% inhibitory concentration (IC50) in test [1] (setting [5]), in test [2] (setting [4]) and in test [3] were more than 1000 nM, 6.1 nM and more than 10000 nM, respectively.
As to `O=C(NC1CCC(F)(F)CC1)c1c(O)c2cc(-c3ccc(F)cc3)cnc2n(CCN2CCOCC2)c1=O` [Compound 7, N-(4,4-difluorocyclohexyl)-6-(4-fluorophenyl)-4-hydroxy-1-(2-morpholinoethyl)-2-oxo-1,2-dihydro-1,8-naphthyridine-3-carboxamide], the IC50 in test [1] (setting [5]), in test [2] (setting [6]) and in test [3] (class symbols) was more than 1000 nM throughout.
Consider `O=C(NC12CC(C1)C2)c1c(O)c2cc(-c3ccc(F)cc3)cnc2n(CCN2CCOCC2)c1=O` [Compound 8, N-(bicyclo[1.1.1]pentan-1-yl)-6-(4-fluorophenyl)-4-hydroxy-1-(2-morpholinoethyl)-2-oxo-1,2-dihydro-1,8-naphthyridine-3-carboxamide], for which the IC50 in test [1] is 40 nM; in test [2] (setting [4]) it was 20 nM; in test [3], more than 10000 nM. In addition, in test [1], the Emax was found to be 32%.
Consider `CC(NC(=O)c1c(O)c2cc(-c3ccc(F)cc3)cnc2n(CCN2CCOCC2)c1=O)c1ccc(F)cc1` (centres unmarked) [Compound 9, 6-(4-fluorophenyl)-N-(1-(4-fluorophenyl)ethyl)-4-hydroxy-1-(2-morpholinoethyl)-2-oxo-1,2-dihydro-1,8-naphthyridine-3-carboxamide], for which the IC50 in test [1] is 71 nM; in test [2] (setting [6]), less than 100 nM; in test [3] (class symbols) it was more than 1000 nM. In addition, the Emax in test [1] came to 7%.
Turning to `COc1ccc(-c2cnc3c(c2)c(O)c(C(=O)NC2CC4(CCC4)C2)c(=O)n3CCN2CCOCC2)cc1` [Compound 10, 4-hydroxy-6-(4-methoxyphenyl)-1-(2-morpholinoethyl)-2-oxo-N-(spiro[3.3]heptan-2-yl)-1,2-dihydro-1,8-naphthyridine-3-carboxamide], the IC50 in test [1] is 7 nM; in test [2] (setting [4]) it was 7 nM; in test [3], more than 10000 nM. Moreover, the Emax in test [1] is 82%.
As for `O=C(NC1CC2(CCC2)C1)c1c(O)c2cc(-c3ccc(Cl)cc3)cnc2n(CCN2CCOCC2)c1=O` [Compound 11, 6-(4-chlorophenyl)-4-hydroxy-1-(2-morpholinoethyl)-2-oxo-N-(spiro[3.3]heptan-2-yl)-1,2-dihydro-1,8-naphthyridine-3-carboxamide], the concentration for half-maximal inhibition (IC50) is 81 nM in test [1], 100 to 999 nM in test [2] and more than 1000 nM in test [3] (class symbols). Also, the Emax in test [1] worked out at 60%.
In the case of `COc1ccc(-c2cnc3c(c2)c(O)c(C(=O)NC24CC(C2)C4)c(=O)n3CCN2CCOCC2)cc1` [Compound 13, N-(bicyclo[1.1.1]pentan-1-yl)-4-hydroxy-6-(4-methoxyphenyl)-1-(2-morpholinoethyl)-2-oxo-1,2-dihydro-1,8-naphthyridine-3-carboxamide], the 50% inhibitory concentration (IC50) in test [1] was 62 nM; in test [2] (setting [4]), 17 nM; in test [3], more than 10000 nM. In addition, the Emax in test [1] was 67%.
For the compound `CC1CCC(NC(=O)c2c(O)c3cc(-c4ccc(OC(F)F)cc4)cnc3n(CCN3CCOCC3)c2=O)CC1` (centres unmarked) [Compound 15, 6-(4-(difluoromethoxy)phenyl)-4-hydroxy-N-(4-methylcyclohexyl)-1-(2-morpholinoethyl)-2-oxo-1,2-dihydro-1,8-naphthyridine-3-carboxamide], the IC50 was 21 nM in test [1], 8.8 nM in test [2] (setting [4]) and more than 10000 nM in test [3]. Besides, the Emax in test [1] worked out at 75%.
Turning to `CC1CCC(NC(=O)c2c(O)c3cc(-c4ccc(C#N)cc4)cnc3n(CCN3CCOCC3)c2=O)CC1` (centres unmarked) [Compound 16, 6-(4-cyanophenyl)-4-hydroxy-N-(4-methylcyclohexyl)-1-(2-morpholinoethyl)-2-oxo-1,2-dihydro-1,8-naphthyridine-3-carboxamide], the Emax in test [1] was 30%. For the same compound, the half-maximal inhibitory concentration (IC50) in test [3] is more than 10000 nM.
As for `CC1CCC(NC(=O)c2c(O)c3cc(-c4ccc5c(c4)OCCO5)cnc3n(CCN3CCOCC3)c2=O)CC1` (centres unmarked) [Compound 19, 6-(2,3-dihydrobenzo[b][1,4]dioxin-6-yl)-4-hydroxy-N-(4-methylcyclohexyl)-1-(2-morpholinoethyl)-2-oxo-1,2-dihydro-1,8-naphthyridine-3-carboxamide], the IC50 was 43 nM in test [1], 20 nM in test [2] (setting [4]) and more than 10000 nM in test [3]. The Emax in test [1] was determined as 81%.
With `COc1ccc(-c2cnc3c(c2)c(O)c(C(=O)NC2CCC(C)CC2)c(=O)n3CCN2CCOCC2)cc1` (centres unmarked) [Compound 20, 4-hydroxy-6-(4-methoxyphenyl)-N-(4-methylcyclohexyl)-1-(2-morpholinoethyl)-2-oxo-1,2-dihydro-1,8-naphthyridine-3-carboxamide], the IC50 in test [1] was 7 nM; in test [2] (setting [4]), 4.7 nM; in test [3] it was more than 10000 nM. Moreover, in test [1], the Emax came to 93%.
`COc1ccc(-c2cnc3c(c2)cc(C(=O)NC2CC4(CCC4)C2)c(=O)n3CCN2CCOCC2)cc1` [Compound 29, 6-(4-methoxyphenyl)-1-(2-morpholinoethyl)-2-oxo-N-(spiro[3.3]heptan-2-yl)-1,2-dihydro-1,8-naphthyridine-3-carboxamide]: the IC50 in test [1] is 5 nM; in test [2] (setting [4]), 1.2 nM; in test [3], more than 10000 nM. In addition, the Emax in test [1] was 107%.
As to `COc1ccc(-c2cnc3c(c2)cc(C(=O)NC(C)c2ccc(F)cc2)c(=O)n3CCN2CCOCC2)cc1` (centres unmarked) [Compound 30, N-(1-(4-fluorophenyl)ethyl)-6-(4-methoxyphenyl)-1-(2-morpholinoethyl)-2-oxo-1,2-dihydro-1,8-naphthyridine-3-carboxamide], the values for the IC50 in test [1], in test [2] (setting [4]) and in test [3] were 17 nM, 1.2 nM and more than 10000 nM, respectively. For the same compound, the Emax in test [1] turned out to be 89%.
In the case of `O=C(NC1CC2(CCC2)C1)c1cc2cc(-c3ccc(OC(F)F)cn3)cnc2n(CCN2CCOCC2)c1=O` [Compound 47, 6-(5-(difluoromethoxy)pyridin-2-yl)-1-(2-morpholinoethyl)-2-oxo-N-(spiro[3.3]heptan-2-yl)-1,2-dihydro-1,8-naphthyridine-3-carboxamide], the Emax in test [1] is 48%. Also, the IC50 in test [3] was more than 10000 nM.
`CC(NC(=O)c1cc2cc(-c3ccc(C#N)cn3)cnc2n(CCN2CCOCC2)c1=O)c1ccc(F)cc1` (centres unmarked) [Compound 58, 6-(5-cyanopyridin-2-yl)-N-(1-(4-fluorophenyl)ethyl)-1-(2-morpholinoethyl)-2-oxo-1,2-dihydro-1,8-naphthyridine-3-carboxamide]: the Emax in test [1] stood at 77%. In test [3], the IC50 is more than 10000 nM.

The values are drawn from patent US11564928B1, “Cannabinoid receptor type 2 (CB2) modulators and uses thereof” (Teon Therapeutics, Inc., priority 2020, dated 2023).
